The test system of this series is rodent lifetime carcinogenesis bioassay, tumor incidence TD50. Briefly: chronic cancer bioassays in animals – CPDB, compiled studies (AID 1745844).

The structures appear in SMILES notation. Calls of active or inactive are those of the source. No rule for the calls is given here.

For orientation: TD50 means the 50% point of the dose-response relation for the toxic effect studied.

Take `NC(=O)N(CC(=O)O)N=O`: the TD50 is, setting by setting: (rat, strain Donryu, females, in drinking water, site: any site (literature study), lesion: several types, types named in the paper, dosed 68 weeks, study length 68 weeks) 1.38 mg/kg/day; (rat, strain Donryu, females, in drinking water, site: intestine, lesion: several types, types named in the paper, dosed 68 weeks, study length 68 weeks) 5.37 mg/kg/day; (rat, strain Donryu, females, in drinking water, site: mammary gland, lesion: fibroadenoma, dosed 68 weeks, study length 68 weeks) 2.92 mg/kg/day; (rat, strain Donryu, females, in drinking water, site: mammary gland, lesion: several types, types named in the paper, dosed 68 weeks, study length 68 weeks) 2.3 mg/kg/day; (rat, strain Donryu, females, in drinking water, site: small intestine, lesion: adenocarcinoma, dosed 68 weeks, study length 68 weeks) 11.6 mg/kg/day; (rat, strain Donryu, females, in drinking water, site: small intestine, lesion: adenoma, dosed 68 weeks, study length 68 weeks) 8.09 mg/kg/day. Also, the TD50 by setting is: (rat, strain MRC-Wistar, males, in drinking water, site: any site (literature study), lesion: several types, types named in the paper, dosed 74 weeks, study length 130 weeks) 13.1 mg/kg/day; (rat, strain MRC-Wistar, males, in drinking water, site: epidermis, lesion: several types, types named in the paper, dosed 74 weeks, study length 130 weeks) 34.8 mg/kg/day.

On to `O=S(=O)(O)c1ccc(N=Nc2cc(S(=O)(=O)O)c3ccccc3c2O)c2ccccc12`, for which the carcinogen call by setting is: (mouse, strain ASH-CS1, females, in feed, site: liver, lesion: one or several types, types not named, dosed 80 weeks, study length 80 weeks) “negative (inactive)”; (mouse, strain ASH-CS1, males, in feed, site: liver, lesion: adenoma, dosed 80 weeks, study length 80 weeks) “negative (inactive)”; (mouse, strain ASH-CS1, males, in feed, site: liver, lesion: nodular hyperplasia, dosed 80 weeks, study length 80 weeks) “negative (inactive)”; (mouse, strain B6C3F1, females, in feed, site: any site (literature study), lesion: several types, types named in the paper, dosed 103 weeks, study length 104 weeks) “negative (inactive)”; (mouse, strain B6C3F1, males, in feed, site: any site (literature study), lesion: several types, types named in the paper, dosed 103 weeks, study length 103 weeks) “negative (inactive)”. Moreover, the TD50 (mouse, strain ASH-CS1, females, in feed, site: lung, lesion: papillary adenoma, dosed 80 weeks, study length 80 weeks) was 32900 mg/kg/day (inactive); the TD50 (mouse, strain ASH-CS1, males, in feed, site: lung, lesion: papillary adenoma, dosed 80 weeks, study length 80 weeks) was 12300 mg/kg/day (inactive); the TD50 (rat, strain Fischer 344, females, in feed, site: any site (literature study), lesion: several types, types named in the paper, dosed 103 weeks, study length 104 weeks) was determined as 7180 mg/kg/day; the TD50 (rat, strain Fischer 344, females, in feed, site: clitoral gland, lesion: sebaceous adenoma, dosed 103 weeks, study length 104 weeks) is 16400 mg/kg/day; the TD50 (rat, strain Fischer 344, females, in feed, site: uterus, lesion: endometrial stromal polyp, dosed 103 weeks, study length 104 weeks) was 3270 mg/kg/day (inactive); the TD50 (rat, strain Fischer 344, males, in feed, site: any site (literature study), lesion: several types, types named in the paper, dosed 103 weeks, study length 104 weeks) was 1860 mg/kg/day (inactive). Where the note is “rat, strain Fischer 344, males, in feed, site: liver, lesion: hepatocellular adenoma + hepatocellular carcinoma + neoplastic nodule, dosed 103 weeks, study length 104 weeks”, the TD50 is 9850 mg/kg/day.

With `CCCCOC(=O)COc1ccc(Cl)cc1Cl`, the carcinogen call was “negative (inactive)” (mouse, strain B6AKF1, females, oral dosing, site: any site (literature study), lesion: several types, types named in the paper, dosed 76 weeks, study length 76 weeks); “negative (inactive)” (mouse, strain B6AKF1, females, oral dosing, site: liver, lesion: hepatoma, dosed 76 weeks, study length 76 weeks); “negative (inactive)” (mouse, strain B6AKF1, females, oral dosing, site: lung, lesion: adenoma, dosed 76 weeks, study length 76 weeks); “negative (inactive)” (mouse, strain B6AKF1, males, oral dosing, site: any site (literature study), lesion: several types, types named in the paper, dosed 76 weeks, study length 76 weeks); “negative (inactive)” (mouse, strain B6AKF1, males, oral dosing, site: liver, lesion: hepatoma, dosed 76 weeks, study length 76 weeks); “negative (inactive)” (mouse, strain B6AKF1, males, oral dosing, site: lung, lesion: adenoma, dosed 76 weeks, study length 76 weeks). For the same compound, the carcinogen call by setting is: (mouse, strain B6C3F1, females, oral dosing, site: liver, lesion: hepatoma, dosed 76 weeks, study length 76 weeks) “negative (inactive)”; (mouse, strain B6C3F1, females, oral dosing, site: lung, lesion: several types, types named in the paper, dosed 76 weeks, study length 76 weeks) “negative (inactive)”. Also, the TD50 was 29.7 mg/kg/day (inactive) (mouse, strain B6C3F1, females, oral dosing, site: any site (literature study), lesion: several types, types named in the paper, dosed 76 weeks, study length 76 weeks); 38.1 mg/kg/day (inactive) (mouse, strain B6C3F1, males, oral dosing, site: any site (literature study), lesion: several types, types named in the paper, dosed 76 weeks, study length 76 weeks); 122 mg/kg/day (inactive) (mouse, strain B6C3F1, males, oral dosing, site: liver, lesion: hepatoma, dosed 76 weeks, study length 76 weeks); 59 mg/kg/day (inactive) (mouse, strain B6C3F1, males, oral dosing, site: lung, lesion: adenoma, dosed 76 weeks, study length 76 weeks).

For `CN(CCCC(=O)O)N=O`, the TD50 runs as follows: (rat, strain F344/DuCrj, males, in drinking water, site: urinary bladder/ureter, lesion: several types, types named in the paper, dosed 40 weeks, study length 78 weeks) 0.982 mg/kg/day; (rat, strain F344/DuCrj, males, in drinking water, site: urinary bladder/ureter, lesion: transitional-cell carcinoma, dosed 40 weeks, study length 78 weeks) 4.23 mg/kg/day.

On to `ClC1(Cl)C2(Cl)C3(Cl)C4(Cl)C(Cl)(Cl)C5(Cl)C3(Cl)C1(Cl)C5(Cl)C24Cl` (centres undefined), for which the TD50 reads like this: (mouse, strain B6AKF1, females, oral dosing, site: any site (literature study), lesion: several types, types named in the paper, dosed 68 weeks, study length 68 weeks) 1.26 mg/kg/day; (mouse, strain B6AKF1, females, oral dosing, site: liver, lesion: hepatoma, dosed 68 weeks, study length 68 weeks) 1.1 mg/kg/day; (mouse, strain B6AKF1, males, oral dosing, site: any site (literature study), lesion: several types, types named in the paper, dosed 58 weeks, study length 58 weeks) 3.32 mg/kg/day; (mouse, strain B6AKF1, males, oral dosing, site: liver, lesion: hepatoma, dosed 58 weeks, study length 58 weeks) 2.13 mg/kg/day; (mouse, strain B6C3F1, females, oral dosing, site: any site (literature study), lesion: several types, types named in the paper, dosed 69 weeks, study length 69 weeks) 1.6 mg/kg/day; (mouse, strain B6C3F1, females, oral dosing, site: liver, lesion: hepatoma, dosed 69 weeks, study length 69 weeks) 1.6 mg/kg/day. For the same compound, the TD50 reads like this: (mouse, strain B6C3F1, males, oral dosing, site: any site (literature study), lesion: several types, types named in the paper, dosed 58 weeks, study length 58 weeks) 1.5 mg/kg/day; (mouse, strain B6C3F1, males, oral dosing, site: liver, lesion: hepatoma, dosed 58 weeks, study length 58 weeks) 1.83 mg/kg/day; (mouse, strain B6C3F1, males, oral dosing, site: liver, lesion: several types, types named in the paper, dosed 58 weeks, study length 58 weeks) 1.5 mg/kg/day; (rat, strain Fischer 344, females, in feed, site: any site (literature study), lesion: several types, types named in the paper, dosed 104 weeks, study length 105 weeks) 21.9 mg/kg/day; (rat, strain Fischer 344, females, in feed, site: any site (literature study), lesion: several types, types named in the paper, dosed 104 weeks, study length 107 weeks) 22.4 mg/kg/day; (rat, strain Fischer 344, females, in feed, site: liver + multiple organs + spleen, lesion: hepatocellular carcinoma + neoplastic nodule + mononuclear-cell leukemia, dosed 104 weeks, study length 105 weeks) 3.34 mg/kg/day. Further, the TD50 is 3.17 mg/kg/day (rat, strain Fischer 344, females, in feed, site: liver, lesion: hepatocellular adenoma + hepatocellular carcinoma + neoplastic nodule, dosed 104 weeks, study length 105 weeks); 16.5 mg/kg/day (rat, strain Fischer 344, females, in feed, site: liver, lesion: hepatocellular adenoma + hepatocellular carcinoma + neoplastic nodule, dosed 104 weeks, study length 107 weeks); 3.17 mg/kg/day (rat, strain Fischer 344, females, in feed, site: liver, lesion: hepatocellular carcinoma + neoplastic nodule, dosed 104 weeks, study length 105 weeks); 3.22 mg/kg/day (rat, strain Fischer 344, females, in feed, site: liver, lesion: neoplastic nodule, dosed 104 weeks, study length 105 weeks); 15.7 mg/kg/day (rat, strain Fischer 344, females, in feed, site: multiple organs + spleen, lesion: mononuclear-cell leukemia, dosed 104 weeks, study length 105 weeks); 5.97 mg/kg/day (rat, strain Fischer 344, females, in feed, site: multiple organs + spleen, lesion: mononuclear-cell leukemia, dosed 104 weeks, study length 107 weeks). Moreover, the TD50 (rat, strain Fischer 344, males, in feed, site: adrenal gland + kidney/pelvis + liver, lesion: pheochromocytoma + pheochromocytoma, malignant + transitional-cell papilloma + hepatocellular carcinoma + neoplastic nodule, dosed 104 weeks, study length 104 weeks) was determined as 0.669 mg/kg/day; the TD50 (rat, strain Fischer 344, males, in feed, site: adrenal gland, lesion: pheochromocytoma + pheochromocytoma, malignant, dosed 104 weeks, study length 104 weeks) is 1.43 mg/kg/day; the TD50 (rat, strain Fischer 344, males, in feed, site: any site (literature study), lesion: several types, types named in the paper, dosed 104 weeks, study length 104 weeks) is 0.618 mg/kg/day; the TD50 (rat, strain Fischer 344, males, in feed, site: kidney/pelvis, lesion: transitional-cell papilloma, dosed 104 weeks, study length 104 weeks) is 13.5 mg/kg/day; the TD50 (rat, strain Fischer 344, males, in feed, site: liver, lesion: hepatocellular adenoma + hepatocellular carcinoma + neoplastic nodule, dosed 104 weeks, study length 104 weeks) was determined as 0.825 mg/kg/day; the TD50 (rat, strain Fischer 344, males, in feed, site: liver, lesion: hepatocellular carcinoma + neoplastic nodule, dosed 104 weeks, study length 104 weeks) is 0.825 mg/kg/day. Besides, the TD50 (rat, strain Fischer 344, males, in feed, site: liver, lesion: hepatocellular carcinoma, dosed 104 weeks, study length 104 weeks) amounted to 7.09 mg/kg/day; the TD50 (rat, strain Fischer 344, males, in feed, site: liver, lesion: neoplastic nodule, dosed 104 weeks, study length 104 weeks) was 0.87 mg/kg/day; the TD50 (rat, strain Fischer 344, males, in feed, site: testis, lesion: interstitial-cell tumor, dosed 104 weeks, study length 104 weeks) amounted to 0.708 mg/kg/day; the TD50 (rat, strain Fischer 344, males, in feed, site: thyroid gland, lesion: follicular-cell adenoma + follicular-cell carcinoma, dosed 104 weeks, study length 104 weeks) was 10.4 mg/kg/day; the TD50 (rat, strain Fischer 344, males, in feed, site: thyroid gland, lesion: follicular-cell adenoma, dosed 104 weeks, study length 104 weeks) turned out to be 12.7 mg/kg/day.

As to `CCN(CC)CCOc1ccc(C(O)(Cc2ccc(OC)cc2)c2ccccc2)cc1` (centres undefined), under “rat, strain Not specified, females, by gavage, site: mammary tissue, wider than the gland, lesion: one or several types, types not named, dosed 52 weeks, study length 52 weeks”, the carcinogen call is “negative (inactive)”.

For the origin of these results see PubChem BioAssay AID1745844 (Carcinogenic Potency Database (CPDB), 2022).
